Columns and labels:
SF-268 = assay: NCI single dose (10 µM) SRB screen; type: cell-based, human; conditions: CNS cancer, 48 h
SR = assay: NCI single dose (10 µM) SRB screen; type: cell-based, human; conditions: leukaemia, 48 h
A549/ATCC = assay: NCI single dose (10 µM) SRB screen; type: cell-based, human; conditions: non-small cell lung cancer, 48 h
HOP-92 = assay: NCI single dose (10 µM) SRB screen; type: cell-based, human; conditions: non-small cell lung cancer, 48 h
CAKI-1 = assay: NCI single dose (10 µM) SRB screen; type: cell-based, human; conditions: renal cancer, 48 h
DU-145 = assay: NCI single dose (10 µM) SRB screen; type: cell-based, human; conditions: prostate cancer, 48 h
MALME-3M = assay: NCI single dose (10 µM) SRB screen; type: cell-based, human; conditions: melanoma, 48 h
A498 = assay: NCI single dose (10 µM) SRB screen; type: cell-based, human; conditions: renal cancer, 48 h
NCI-H23 = assay: NCI single dose (10 µM) SRB screen; type: cell-based, human; conditions: non-small cell lung cancer, 48 h
KM12 = assay: NCI single dose (10 µM) SRB screen; type: cell-based, human; conditions: colon cancer, 48 h
T-47D = assay: NCI single dose (10 µM) SRB screen; type: cell-based, human; conditions: breast cancer, 48 h
NCI-H522 = assay: NCI single dose (10 µM) SRB screen; type: cell-based, human; conditions: non-small cell lung cancer, 48 h
Bacillus subtilis = assay: Agar well diffusion method; conditions: relative to ciprofloxacin
TK-10 = assay: NCI single dose (10 µM) SRB screen; type: cell-based, human; conditions: renal cancer, 48 h
Escherichia coli = assay: Agar well diffusion method; conditions: relative to ciprofloxacin
ACHN = assay: NCI single dose (10 µM) SRB screen; type: cell-based, human; conditions: renal cancer, 48 h
HCT-15 = assay: NCI single dose (10 µM) SRB screen; type: cell-based, human; conditions: colon cancer, 48 h
NCI-H460 = assay: NCI single dose (10 µM) SRB screen; type: cell-based, human; conditions: non-small cell lung cancer, 48 h
IGROV1 = assay: NCI single dose (10 µM) SRB screen; type: cell-based, human; conditions: ovarian cancer, 48 h
EKVX = assay: NCI single dose (10 µM) SRB screen; type: cell-based, human; conditions: non-small cell lung cancer, 48 h
PC-3 = assay: NCI single dose (10 µM) SRB screen; type: cell-based, human; conditions: prostate cancer, 48 h
HCT-116 = assay: NCI single dose (10 µM) SRB screen; type: cell-based, human; conditions: colon cancer, 48 h
HCC-2998 = assay: NCI single dose (10 µM) SRB screen; type: cell-based, human; conditions: colon cancer, 48 h
HOP-62 = assay: NCI single dose (10 µM) SRB screen; type: cell-based, human; conditions: non-small cell lung cancer, 48 h
SK-MEL-28 = assay: NCI single dose (10 µM) SRB screen; type: cell-based, human; conditions: melanoma, 48 h
SF-539 = assay: NCI single dose (10 µM) SRB screen; type: cell-based, human; conditions: CNS cancer, 48 h
SNB-75 = assay: NCI single dose (10 µM) SRB screen; type: cell-based, human; conditions: CNS cancer, 48 h
U251 = assay: NCI single dose (10 µM) SRB screen; type: cell-based, human; conditions: CNS cancer, 48 h
MDA-MB-468 = assay: NCI single dose (10 µM) SRB screen; type: cell-based, human; conditions: breast cancer, 48 h
UACC-257 = assay: NCI single dose (10 µM) SRB screen; type: cell-based, human; conditions: melanoma, 48 h
MDA-MB-435 = assay: NCI single dose (10 µM) SRB screen; type: cell-based, human; conditions: melanoma, 48 h
M14 = assay: NCI single dose (10 µM) SRB screen; type: cell-based, human; conditions: melanoma, 48 h
SK-MEL-2 = assay: NCI single dose (10 µM) SRB screen; type: cell-based, human; conditions: melanoma, 48 h
UACC-62 = assay: NCI single dose (10 µM) SRB screen; type: cell-based, human; conditions: melanoma, 48 h
SF-295 = assay: NCI single dose (10 µM) SRB screen; type: cell-based, human; conditions: CNS cancer, 48 h
NCI-H322M = assay: NCI single dose (10 µM) SRB screen; type: cell-based; conditions: non-small cell lung cancer, 48 h
RPMI-8226 = assay: NCI single dose (10 µM) SRB screen; type: cell-based, human; conditions: leukaemia, 48 h
NCI/ADR-RES = assay: NCI single dose (10 µM) SRB screen; type: cell-based, human; conditions: ovarian cancer, 48 h
SNB-19 = assay: NCI single dose (10 µM) SRB screen; type: cell-based, human; conditions: CNS cancer, 48 h
CCRF-CEM = assay: NCI single dose (10 µM) SRB screen; type: cell-based, human; conditions: leukaemia, 48 h
HL-60(TB) = assay: NCI single dose (10 µM) SRB screen; type: cell-based, human; conditions: leukaemia, 48 h
MOLT-4 = assay: NCI single dose (10 µM) SRB screen; type: cell-based, human; conditions: leukaemia, 48 h
K-562 = assay: NCI single dose (10 µM) SRB screen; type: cell-based, human; conditions: leukaemia, 48 h
Pseudomonas aeruginosa = assay: Agar well diffusion method; conditions: relative to ciprofloxacin
786-0 = assay: NCI single dose (10 µM) SRB screen; type: cell-based, human; conditions: renal cancer, 48 h
UO-31 = assay: NCI single dose (10 µM) SRB screen; type: cell-based, human; conditions: renal cancer, 48 h
OVCAR-5 = assay: NCI single dose (10 µM) SRB screen; type: cell-based, human; conditions: ovarian cancer, 48 h
SK-OV-3 = assay: NCI single dose (10 µM) SRB screen; type: cell-based, human; conditions: ovarian cancer, 48 h
SN12C = assay: NCI single dose (10 µM) SRB screen; type: cell-based, human; conditions: renal cancer, 48 h
HT29 = assay: NCI single dose (10 µM) SRB screen; type: cell-based, human; conditions: colon cancer, 48 h
Staphylococcus aureus = assay: Agar well diffusion method; conditions: relative to ciprofloxacin
MDA-MB-231 = assay: NCI single dose (10 µM) SRB screen; type: cell-based, human; conditions: breast cancer, 48 h
COLO 205 = assay: NCI single dose (10 µM) SRB screen; type: cell-based, human; conditions: colon cancer, 48 h

Structure (SMILES): CCOC(=O)C1=C(C)NC(C)=C(C(=O)OCc2ccccc2)C1c1cccc(C#N)c1 (racemic) [Compound 2l, (±)-3- Benzyl 5-ethyl 4-(3-cyanophenyl)-2,6-dimethyl-1,4-dihydropyridine-3,5-dicarboxylate]
- GI% SF-268 (SF-268): 42%
- GI% SR (SR): 78%
- GI% A549/ATCC (A549/ATCC): 65%
- GI% HOP-92 (HOP-92): 49%
- GI% CAKI-1 (CAKI-1): 67%
- GI% DU-145 (DU-145): 42%
- GI% MALME-3M (MALME-3M): 62%
- GI% A498 (A498): 104%
- GI% NCI-H23 (NCI-H23): 37%
- GI% KM12 (KM12): 74%
- GI% T-47D (T-47D): 72%
- GI% NCI-H522 (NCI-H522): 90%
- % activity index, B. subtilis (Bacillus subtilis): – (Values below 25 are of limited value and not shown as they refer either to inactive or non-diffusing compounds)
- GI% TK-10 (TK-10): 16%
- % activity index, E. coli (Escherichia coli): – (Values below 25 are of limited value and not shown as they refer either to inactive or non-diffusing compounds)
- GI% ACHN (ACHN): 52%
- GI% HCT-15 (HCT-15): 77%
- GI% NCI-H460 (NCI-H460): 77%
- GI% IGROV1 (IGROV1): 57%
- GI% EKVX (EKVX): 62%
- GI% PC-3 (PC-3): 66%
- GI% HCT-116 (HCT-116): 86%
- GI% HCC-2998 (HCC-2998): 29%
- GI% HOP-62 (HOP-62): 54%
- GI% SK-MEL-28 (SK-MEL-28): 48%
- GI% SF-539 (SF-539): 76%
- GI% SNB-75 (SNB-75): 104%
- GI% U251 (U251): 58%
- GI% MDA-MB-468 (MDA-MB-468): 84%
- GI% UACC-257 (UACC-257): 44%
- GI% MDA-MB-435 (MDA-MB-435): 110%
- GI% M14 (M14): 85%
- GI% SK-MEL-2 (SK-MEL-2): 75%
- GI% UACC-62 (UACC-62): 66%
- GI% SF-295 (SF-295): 84%
- GI% NCI-H322M (NCI-H322M): 30%
- GI% RPMI-8226 (RPMI-8226): 67%
- GI% NCI/ADR-RES (NCI/ADR-RES): 77%
- GI% SNB-19 (SNB-19): 58%
- GI% CCRF-CEM (CCRF-CEM): 74%
- GI% HL-60(TB) (HL-60(TB)): 83%
- GI% MOLT-4 (MOLT-4): 68%
- GI% K-562 (K-562): 83%
- % activity index, P. aeruginosa (Pseudomonas aeruginosa): – (Values below 25 are of limited value and not shown as they refer either to inactive or non-diffusing compounds)
- GI% 786-0 (786-0): 63%
- GI% UO-31 (UO-31): 56%
- GI% OVCAR-5 (OVCAR-5): 38%
- GI% SK-OV-3 (SK-OV-3): 24%
- GI% SN12C (SN12C): 63%
- GI% HT29 (HT29): 88%
- % activity index, S. aureus (Staphylococcus aureus): – (Values below 25 are of limited value and not shown as they refer either to inactive or non-diffusing compounds)
- GI% MDA-MB-231 (MDA-MB-231): 47%
- GI% COLO 205 (COLO 205): 65%

— article PMC9481151, “Discovery of new symmetrical and asymmetrical nitrile-containing 1,4-dihydropyridine derivatives as dual kinases and P-glycoprotein inhibitors: synthesis, in vitro assays, and in silico studies” (Journal of Enzyme Inhibition and Medicinal Chemistry, 2022)
